Test results taken from US12157741B2, “Macrocyclic inhibitors of DYRK1A” (DANA-FARBER CANCER INSTITUTE, INC., priority 2018, dated 2024).
Read-outs that look alike come from different tables or passages of the source.

Tests used:
Format in all cases: binding
[1] = biological target: various enzymes (Homo sapiens, UniProt O95747); conditions: compound 1 uM
Description: (§1) Ambit profiling was conducted in accordance with the manufacturer's instructions.

[2] = biological target: various enzymes (Homo sapiens, UniProt P00533, L858R)
Description: as §1

[3] = biological target: various enzymes (Homo sapiens, UniProt P04049); conditions: compound 1 uM
Description: as §1

[4] = biological target: various enzymes (Homo sapiens, UniProt P06241); conditions: compound 1 uM
Description: as §1

[5] = biological target: various enzymes (Homo sapiens, UniProt P07948); conditions: compound 1 uM
Description: as §1

[6] = biological target: various enzymes (Homo sapiens, UniProt P07949); conditions: compound 1 uM
Description: as §1

[7] = biological target: various enzymes (Homo sapiens, UniProt P10721, V559D)
Description: as §1

[8] = biological target: various enzymes (Homo sapiens, UniProt P19784); conditions: compound 1 uM
Description: as §1

[9] = biological target: various enzymes (Homo sapiens, UniProt P25098); conditions: compound 1 uM
Description: as §1

[10] = biological target: various enzymes (Homo sapiens, UniProt P27037); conditions: compound 1 uM
Description: as §1

[11] = biological target: various enzymes (Homo sapiens, UniProt P29320); conditions: compound 1 uM
Description: as §1

[12] = biological target: various enzymes (Homo sapiens, UniProt P31749); conditions: compound 1 uM
Description: as §1

[13] = biological target: T1, various enzymes (Homo sapiens, UniProt P36888); conditions: compound 1 uM
T1 sequence (P36888 27-993): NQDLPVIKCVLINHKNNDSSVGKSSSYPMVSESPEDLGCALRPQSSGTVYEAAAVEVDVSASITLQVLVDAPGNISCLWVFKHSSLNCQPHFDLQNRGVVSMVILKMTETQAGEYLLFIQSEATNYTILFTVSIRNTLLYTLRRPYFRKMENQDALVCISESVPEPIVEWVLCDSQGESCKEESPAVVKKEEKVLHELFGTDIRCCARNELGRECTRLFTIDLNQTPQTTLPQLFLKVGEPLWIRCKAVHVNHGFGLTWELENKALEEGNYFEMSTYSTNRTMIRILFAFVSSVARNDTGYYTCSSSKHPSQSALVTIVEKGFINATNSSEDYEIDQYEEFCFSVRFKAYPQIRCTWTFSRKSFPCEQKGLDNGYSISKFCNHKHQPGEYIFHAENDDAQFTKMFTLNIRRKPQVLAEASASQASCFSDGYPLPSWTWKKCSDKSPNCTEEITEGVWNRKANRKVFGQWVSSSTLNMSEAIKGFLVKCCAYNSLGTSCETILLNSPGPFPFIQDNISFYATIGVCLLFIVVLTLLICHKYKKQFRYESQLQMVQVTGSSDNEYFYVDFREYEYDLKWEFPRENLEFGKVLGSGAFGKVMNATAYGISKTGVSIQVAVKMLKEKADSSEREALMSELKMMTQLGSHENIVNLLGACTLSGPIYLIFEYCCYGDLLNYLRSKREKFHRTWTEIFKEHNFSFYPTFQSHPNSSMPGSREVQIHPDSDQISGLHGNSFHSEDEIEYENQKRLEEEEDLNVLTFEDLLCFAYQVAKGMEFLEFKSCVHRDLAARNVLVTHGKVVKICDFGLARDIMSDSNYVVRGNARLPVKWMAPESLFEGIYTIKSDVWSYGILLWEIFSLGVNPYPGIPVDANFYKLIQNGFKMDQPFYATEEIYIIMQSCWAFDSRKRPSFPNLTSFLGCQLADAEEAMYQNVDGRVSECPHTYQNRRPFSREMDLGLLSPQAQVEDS
Description: as §1

[14] = biological target: various enzymes (Homo sapiens, UniProt P36888, D835V)
Description: as §1

[15] = biological target: T2, various enzymes (Homo sapiens, UniProt P36888, D835V, form not given)
T2 construct: other: FLT3(ITD, D835V); 1 uM; other: compound 1 uM
Description: as §1

[16] = biological target: various enzymes (Homo sapiens, UniProt P41240); conditions: compound 1 uM
Description: as §1

[17] = biological target: various enzymes (Homo sapiens, UniProt P42336, E542K)
Description: as §1

[18] = biological target: various enzymes (Homo sapiens, UniProt P42336, E545A)
Description: as §1

[19] = biological target: various enzymes (Homo sapiens, UniProt P42680); conditions: compound 1 uM
Description: as §1

[20] = biological target: various enzymes (Homo sapiens, UniProt P42681); conditions: compound 1 uM
Description: as §1

[21] = biological target: various enzymes (Homo sapiens, UniProt P46734); conditions: compound 1 uM
Description: as §1

[22] = biological target: various enzymes (Homo sapiens, UniProt P48736); conditions: compound 1 uM
Description: as §1

[23] = biological target: various enzymes (Homo sapiens, UniProt Q00536); conditions: compound 1 uM
Description: as §1

[24] = biological target: various enzymes (Homo sapiens, UniProt Q13188); conditions: compound 1 uM
Description: as §1

[25] = biological target: various enzymes (Homo sapiens, UniProt Q13237); conditions: compound 1 uM
Description: as §1

[26] = biological target: various enzymes (Homo sapiens, UniProt Q14012); conditions: compound 1 uM
Description: as §1

[27] = biological target: various enzymes (Homo sapiens, UniProt Q15208); conditions: compound 1 uM
Description: as §1

[28] = biological target: various enzymes (Homo sapiens, UniProt Q56UN5); conditions: compound 1 uM
Description: as §1

[29] = biological target: various enzymes (Homo sapiens, UniProt Q99558); conditions: compound 1 uM
Description: as §1

[30] = biological target: various enzymes (Homo sapiens, UniProt Q9UBE8); conditions: compound 1 uM
Description: as §1

Sequence of various enzymes (Homo sapiens, UniProt P07949) (P07949 29-1114): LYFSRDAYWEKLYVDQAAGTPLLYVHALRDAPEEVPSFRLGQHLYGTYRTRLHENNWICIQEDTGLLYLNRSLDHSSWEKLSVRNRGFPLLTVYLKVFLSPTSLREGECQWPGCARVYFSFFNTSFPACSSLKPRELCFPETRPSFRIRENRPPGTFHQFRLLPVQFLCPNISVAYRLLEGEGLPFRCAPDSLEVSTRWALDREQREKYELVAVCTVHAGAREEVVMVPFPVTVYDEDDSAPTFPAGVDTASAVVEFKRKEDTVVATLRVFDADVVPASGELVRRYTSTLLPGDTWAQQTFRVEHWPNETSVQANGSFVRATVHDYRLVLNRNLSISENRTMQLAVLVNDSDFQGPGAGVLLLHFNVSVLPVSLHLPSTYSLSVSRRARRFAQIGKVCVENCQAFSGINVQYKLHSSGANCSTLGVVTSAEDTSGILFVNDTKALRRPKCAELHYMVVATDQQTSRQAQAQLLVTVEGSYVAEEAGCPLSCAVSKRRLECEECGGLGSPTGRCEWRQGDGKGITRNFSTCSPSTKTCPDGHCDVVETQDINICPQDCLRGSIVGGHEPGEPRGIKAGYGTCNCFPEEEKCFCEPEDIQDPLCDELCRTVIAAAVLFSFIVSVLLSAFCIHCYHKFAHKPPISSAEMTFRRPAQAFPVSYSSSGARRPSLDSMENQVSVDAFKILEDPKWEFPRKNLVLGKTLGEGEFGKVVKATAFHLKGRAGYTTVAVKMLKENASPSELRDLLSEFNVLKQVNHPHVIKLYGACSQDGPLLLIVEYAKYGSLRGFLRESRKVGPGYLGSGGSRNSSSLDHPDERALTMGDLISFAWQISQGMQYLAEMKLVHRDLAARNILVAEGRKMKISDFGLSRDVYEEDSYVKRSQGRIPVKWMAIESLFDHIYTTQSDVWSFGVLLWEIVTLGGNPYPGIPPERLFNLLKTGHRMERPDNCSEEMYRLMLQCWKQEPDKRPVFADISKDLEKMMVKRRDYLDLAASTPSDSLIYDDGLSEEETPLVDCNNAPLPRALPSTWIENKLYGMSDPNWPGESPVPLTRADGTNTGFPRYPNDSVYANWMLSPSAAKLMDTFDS
Sequence of various enzymes (Homo sapiens, UniProt P31749) (P31749 whole entry): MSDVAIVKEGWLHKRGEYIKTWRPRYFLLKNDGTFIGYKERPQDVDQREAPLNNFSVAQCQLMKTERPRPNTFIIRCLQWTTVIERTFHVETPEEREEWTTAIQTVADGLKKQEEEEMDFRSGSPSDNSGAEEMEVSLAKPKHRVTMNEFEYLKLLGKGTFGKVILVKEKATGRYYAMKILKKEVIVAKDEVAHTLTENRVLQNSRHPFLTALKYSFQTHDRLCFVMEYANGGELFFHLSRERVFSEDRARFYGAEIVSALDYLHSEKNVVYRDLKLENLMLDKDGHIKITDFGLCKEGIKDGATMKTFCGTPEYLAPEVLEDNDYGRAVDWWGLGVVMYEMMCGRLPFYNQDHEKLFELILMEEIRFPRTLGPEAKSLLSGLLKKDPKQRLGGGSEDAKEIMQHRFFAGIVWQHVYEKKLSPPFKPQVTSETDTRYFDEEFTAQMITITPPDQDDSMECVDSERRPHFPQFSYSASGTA
Sequence of various enzymes (Homo sapiens, UniProt P42680) (P42680 whole entry): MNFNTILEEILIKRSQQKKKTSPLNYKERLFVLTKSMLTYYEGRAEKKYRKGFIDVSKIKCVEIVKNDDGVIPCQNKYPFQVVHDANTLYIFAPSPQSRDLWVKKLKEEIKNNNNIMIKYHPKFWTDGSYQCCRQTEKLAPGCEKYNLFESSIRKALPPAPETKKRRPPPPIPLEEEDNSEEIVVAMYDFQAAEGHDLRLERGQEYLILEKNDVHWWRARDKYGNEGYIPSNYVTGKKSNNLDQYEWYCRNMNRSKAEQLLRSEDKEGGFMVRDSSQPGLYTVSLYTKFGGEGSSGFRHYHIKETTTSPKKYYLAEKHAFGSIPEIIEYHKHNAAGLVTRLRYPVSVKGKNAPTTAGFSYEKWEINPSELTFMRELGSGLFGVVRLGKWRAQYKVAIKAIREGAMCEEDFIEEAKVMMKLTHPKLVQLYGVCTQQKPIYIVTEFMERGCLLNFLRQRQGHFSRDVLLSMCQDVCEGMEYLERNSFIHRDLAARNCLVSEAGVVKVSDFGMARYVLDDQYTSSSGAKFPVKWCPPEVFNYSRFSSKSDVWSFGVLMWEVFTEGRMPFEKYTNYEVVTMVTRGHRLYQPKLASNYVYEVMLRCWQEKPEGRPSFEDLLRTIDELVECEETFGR
Sequence of various enzymes (Homo sapiens, UniProt P06241) (P06241 whole entry): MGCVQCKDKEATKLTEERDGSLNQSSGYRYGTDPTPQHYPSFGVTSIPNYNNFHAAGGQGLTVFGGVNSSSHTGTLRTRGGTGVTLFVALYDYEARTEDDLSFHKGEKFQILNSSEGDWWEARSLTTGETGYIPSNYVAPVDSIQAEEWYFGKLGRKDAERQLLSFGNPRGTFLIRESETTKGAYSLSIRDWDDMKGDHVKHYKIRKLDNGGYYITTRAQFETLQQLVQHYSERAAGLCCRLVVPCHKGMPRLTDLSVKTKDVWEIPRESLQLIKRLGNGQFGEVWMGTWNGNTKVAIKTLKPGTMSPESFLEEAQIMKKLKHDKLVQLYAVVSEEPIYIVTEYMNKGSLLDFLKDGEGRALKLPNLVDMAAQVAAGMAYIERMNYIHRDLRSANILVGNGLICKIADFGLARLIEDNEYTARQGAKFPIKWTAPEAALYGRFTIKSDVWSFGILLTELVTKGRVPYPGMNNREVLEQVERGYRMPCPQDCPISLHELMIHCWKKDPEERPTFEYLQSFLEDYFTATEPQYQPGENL
Sequence of various enzymes (Homo sapiens, UniProt Q13237) (Q13237 whole entry): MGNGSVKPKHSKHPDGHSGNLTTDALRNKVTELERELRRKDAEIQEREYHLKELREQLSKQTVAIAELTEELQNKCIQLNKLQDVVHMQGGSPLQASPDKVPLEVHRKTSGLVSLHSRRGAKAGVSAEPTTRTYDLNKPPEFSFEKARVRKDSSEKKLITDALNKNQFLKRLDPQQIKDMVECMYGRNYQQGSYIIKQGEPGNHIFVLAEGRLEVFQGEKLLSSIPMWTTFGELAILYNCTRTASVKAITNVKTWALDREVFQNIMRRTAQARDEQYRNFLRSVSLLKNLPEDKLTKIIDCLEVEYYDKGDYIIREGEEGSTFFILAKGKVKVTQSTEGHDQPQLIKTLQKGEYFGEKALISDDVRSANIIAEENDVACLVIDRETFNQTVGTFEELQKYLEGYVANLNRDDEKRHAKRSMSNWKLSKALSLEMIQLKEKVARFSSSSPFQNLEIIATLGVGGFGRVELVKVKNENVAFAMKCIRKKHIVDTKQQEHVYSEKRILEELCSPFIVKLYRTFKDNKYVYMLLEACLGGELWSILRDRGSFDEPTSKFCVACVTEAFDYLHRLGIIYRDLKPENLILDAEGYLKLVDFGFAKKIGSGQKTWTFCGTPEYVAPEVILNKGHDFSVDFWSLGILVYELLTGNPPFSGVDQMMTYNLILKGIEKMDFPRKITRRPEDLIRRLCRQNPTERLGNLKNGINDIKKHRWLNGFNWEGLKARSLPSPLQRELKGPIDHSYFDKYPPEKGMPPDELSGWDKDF
Sequence of various enzymes (Homo sapiens, UniProt Q9UBE8) (Q9UBE8 whole entry): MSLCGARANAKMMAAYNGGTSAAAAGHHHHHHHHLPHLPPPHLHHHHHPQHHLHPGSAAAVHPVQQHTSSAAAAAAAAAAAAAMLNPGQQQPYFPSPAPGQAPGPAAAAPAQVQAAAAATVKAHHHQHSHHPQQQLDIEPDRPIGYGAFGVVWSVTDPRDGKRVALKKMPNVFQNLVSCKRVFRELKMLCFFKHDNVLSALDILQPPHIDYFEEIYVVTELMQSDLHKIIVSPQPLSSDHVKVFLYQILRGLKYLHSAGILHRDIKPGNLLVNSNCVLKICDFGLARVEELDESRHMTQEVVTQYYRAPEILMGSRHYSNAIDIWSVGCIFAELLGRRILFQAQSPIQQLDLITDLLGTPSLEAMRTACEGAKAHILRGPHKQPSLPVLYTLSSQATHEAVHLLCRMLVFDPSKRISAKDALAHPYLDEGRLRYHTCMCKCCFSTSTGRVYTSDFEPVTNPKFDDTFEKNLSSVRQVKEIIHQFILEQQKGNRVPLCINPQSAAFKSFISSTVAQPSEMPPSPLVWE
Sequence of various enzymes (Homo sapiens, UniProt P42681) (P42681 whole entry): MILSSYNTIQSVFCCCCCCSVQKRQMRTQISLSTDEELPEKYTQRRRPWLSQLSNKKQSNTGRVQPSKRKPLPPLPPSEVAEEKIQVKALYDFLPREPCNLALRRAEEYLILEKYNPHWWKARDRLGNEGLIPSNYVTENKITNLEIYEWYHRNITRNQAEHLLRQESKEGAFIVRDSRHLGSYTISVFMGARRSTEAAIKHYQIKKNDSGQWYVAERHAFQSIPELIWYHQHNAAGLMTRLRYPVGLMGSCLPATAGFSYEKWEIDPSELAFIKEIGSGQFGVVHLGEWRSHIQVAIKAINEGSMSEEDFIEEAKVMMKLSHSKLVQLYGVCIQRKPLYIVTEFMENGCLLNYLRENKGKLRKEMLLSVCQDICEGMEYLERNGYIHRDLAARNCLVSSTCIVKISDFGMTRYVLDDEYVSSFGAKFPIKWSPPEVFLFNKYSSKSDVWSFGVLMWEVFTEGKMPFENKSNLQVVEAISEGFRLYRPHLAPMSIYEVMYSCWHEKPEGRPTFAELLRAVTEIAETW
Sequence of various enzymes (Homo sapiens, UniProt P46734) (P46734 whole entry): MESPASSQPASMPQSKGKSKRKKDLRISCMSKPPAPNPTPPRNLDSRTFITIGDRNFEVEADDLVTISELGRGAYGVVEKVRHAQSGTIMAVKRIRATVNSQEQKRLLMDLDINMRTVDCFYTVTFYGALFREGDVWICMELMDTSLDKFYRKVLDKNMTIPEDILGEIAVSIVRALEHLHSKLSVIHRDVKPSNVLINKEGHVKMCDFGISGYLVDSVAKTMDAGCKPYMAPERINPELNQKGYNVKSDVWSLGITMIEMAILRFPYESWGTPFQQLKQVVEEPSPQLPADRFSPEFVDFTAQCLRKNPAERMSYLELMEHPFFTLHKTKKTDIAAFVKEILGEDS

Structure (SMILES)	Ambit profiling: OSR1 [1]	Ambit profiling: RAF1 [3]	Ambit profiling: FYN [4]	Ambit profiling: LYN [5]	Ambit profiling: RET [6]	Ambit profiling: CSNK2A2 [8]	Ambit profiling: GRK2 [9]	Ambit profiling: ACVR2A [10]	Ambit profiling: EPHA3 [11]	Ambit profiling: AKT1 [12]	Ambit profiling: FLT3 [13]	Ambit profiling: FLT3-autoinhibited [13]	Ambit profiling: CSK [16]	Ambit profiling: TEC [19]	Ambit profiling: TXK [20]	Ambit profiling: MEK3 [21]	Ambit profiling: PIK3CG [22]	Ambit profiling: PCTK1 [23]	Ambit profiling: MST2 [24]	Ambit profiling: PRKG2 [25]	other results
CC(C)N1Cc2nn(C)cc2-c2cnc3[nH]cc(c3c2)-c2cn(nc2C(F)(F)F)CCCC1=O [Compound 45, (Z)-5-isopropyl-31-methyl-13-(trifluoromethyl)-11H,21H,31H-5-aza-2(3,5)-pyrrolo[2,3-b]pyridina-1(4,1),3(4,3)-dipyrazolacyclononaphan-6-one]	100	100	39	22	0.15	1.8	100	100	32	100	0	21	3.9	97	15	0	94	20	0	100	Ambit profiling: EGFR(L858R) ([2]; compound 1 uM): 25; Ambit profiling: KIT(V559D) ([7]; compound 1 uM): 3.2; Ambit profiling: FLT3(D835V) ([14]; compound 1 uM): 0; Ambit profiling: FLT3(ITD, D835V) ([15]; compound 1 uM): 0; Ambit profiling: PIK3CA(E542K) ([17]; compound 1 uM): 98; Ambit profiling: PIK3CA(E545A) ([18]; compound 1 uM): 56; Ambit profiling: CAMK1 [26]: 91; Ambit profiling: NDR1 [27]: 59; Ambit profiling: YSK4 [28]: 17; Ambit profiling: NIK [29]: 94; Ambit profiling: NLK [30]: 84
COc1c2c(nn1C)CN(C(C)C)C(=O)CCCn1cc(c(C(F)(F)F)n1)-c1c[nH]c3ncc-2cc13 [Compound 50, (Z)-5-isopropyl-35-methoxy-31-methyl-13-(trifluoromethyl)-11H,21H,31H-5-aza-2(3,5)-pyrrolo[2,3-b]pyridina-1(4,1),3(4,3)-dipyrazolacyclononaphan-6-one]	100	93	28	15	0.1	8.7	87	96	45	100	1.1	6.4	4.7	32	3.2	7.1	54	66	3.1	87	Ambit profiling: EGFR(L858R) [2]: 18; Ambit profiling: KIT(V559D) [7]: 0.95; Ambit profiling: FLT3(D835V) [14]: 0; Ambit profiling: FLT3(ITD, D835V) [15]: 0.55; Ambit profiling: PIK3CA(E542K) [17]: 85; Ambit profiling: PIK3CA(E545A) [18]: 82; Ambit profiling: CAMK1 [26]: 53; Ambit profiling: NDR1 [27]: 64; Ambit profiling: YSK4 [28]: 0.1; Ambit profiling: NIK [29]: 86; Ambit profiling: NLK [30]: 84
